Results taken from the supplement of paper PMC10307832.

Tests used:
Experiment in all cases: relative viability (nuclei count vs DMSO), 5 days (fraction); higher = more cells survive
[1] = compound: C/C(=N\NC(=S)N1CCC1)/C2=CC=CC=N2 + Nc1ncn([C@H]2C[C@H](O)[C@@H](CO)O2)c(=O)n1 [Decitabine] (partner 2 µM)
Method in brief: (§1)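 Relative viability was taken as the ratio of nuclei in treated wells to nuclei in vehicle wells. Lung cancer cell lines in 1536-well plates received compounds by pin tool one day after seeding, either one drug alone or a fixed anchor-drug dose plus five library-drug doses (not always all listed) in √10 steps. Nuclei were counted on 4× images after 5 days of treatment, and values are medians of duplicate plates.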

[2] = compound: C/C(=N\NC(=S)N1CCC1)/C2=CC=CC=N2 + C[C@@H](Oc1cc(-c2cnn(C3CCNCC3)c2)cnc1N)c1c(Cl)ccc(F)c1Cl [Crizotinib] (partner 1 µM)
Method in brief: as §1

[3] = compound: C/C(=N\NC(=S)N1CCC1)/C2=CC=CC=N2 + N=C(N)NC(=N)NCCc1ccccc1 [Phenformin] (partner 250 µM)
Method in brief: as §1

[4] = compound: C/C(=N\NC(=S)N1CCC1)/C2=CC=CC=N2 + CC1(C)CCC(c2ccc(Cl)cc2)=C(CN2CCN(c3ccc(C(=O)NS(=O)(=O)c4ccc(N[C@H](CCN5CCOCC5)CSc5ccccc5)c(S(=O)(=O)C(F)(F)F)c4)cc3)CC2)C1 [Navitoclax] (partner 0.5 µM)
Method in brief: as §1

Cell Line	relative viability ([1]; first compound 0.05 µM)	relative viability ([1]; first compound 0.1581 µM)	relative viability ([1]; first compound 0.5 µM)	relative viability ([1]; first compound 1.581 µM)	relative viability ([1]; first compound 5 µM)	relative viability ([2]; first compound 0.05 µM)	relative viability ([2]; first compound 0.1581 µM)	relative viability ([2]; first compound 0.5 µM)	relative viability ([2]; first compound 1.581 µM)	relative viability ([2]; first compound 5 µM)	relative viability ([3]; first compound 0.05 µM)	relative viability ([3]; first compound 0.1581 µM)	relative viability ([3]; first compound 0.5 µM)	relative viability ([3]; first compound 1.581 µM)	relative viability ([3]; first compound 5 µM)	relative viability ([4]; first compound 0.05 µM)	relative viability ([4]; first compound 0.1581 µM)	relative viability ([4]; first compound 0.5 µM)	relative viability ([4]; first compound 1.581 µM)	relative viability ([4]; first compound 5 µM)
HCC-366	0.103	0.0378	0.0365	0.035	0.0275	0.0857	0.0157	0.0133	0.0162	0.018	0.0354	0.0736	0.0328	0.0375	0.0286	0.0139	0.0237	0.0184	0.0179	0.0172
HCC-827	0.253	0.244	0.237	0.182	0.185	0.675	0.894	0.307	0.296	0.204	0.222	0.239	0.201	0.173	0.175	0.639	1.02	0.308	0.273	0.241
HOP-62	0.121	0.142	0.0886	0.106	0.117	0.218	0.626	0.0574	0.0819	0.0635	0.0721	0.0624	0.0719	0.0958	0.0779	0.169	0.0748	0.0823	0.104	0.0618
LC-2-ad	0.267	0.244	0.204	0.227	0.22	0.226	0.207	0.198	0.171	0.143	0.29	0.277	0.259	0.19	0.226	0.0933	0.0992	0.0713	0.0966	0.121
LCLC-97TM1	0.0771	0.284	0.0691	0.0739	0.0762	0.155	0.307	0.103	0.0898	0.119	0.128	0.189	0.109	0.166	0.139	0.124	0.421	0.0929	0.115	0.104
LK-2	0.0805	0.111	0.0805	0.0894	0.0937	0.197	0.255	0.266	0.226	0.215	0.119	0.185	0.13	0.085	0.151	0.121	0.146	0.108	0.112	0.126
LOU-NH91	0.625	0.626	0.579	0.462	0.495	0.515	0.471	0.476	0.45	0.472	0.371	0.403	0.352	0.262	0.419	0.275	0.308	0.253	0.225	0.278
LU99A	0.222	0.624	0.171	0.162	0.173	0.23	0.0986	0.168	0.133	0.143	0.163	0.189	0.145	0.143	0.178	0.196	0.181	0.139	0.154	0.187
LXF-289	0.274	0.356	0.198	0.236	0.158	0.417	0.287	0.24	0.168	0.121	0.22	0.203	0.202	0.2	0.0793	0.431	0.361	0.248	0.193	0.108
NCI-H23	0.178	0.2	0.161	0.172	0.202	0.134	0.15	0.129	0.105	0.114	0.144	0.164	0.185	0.117	0.139	0.139	0.186	0.117	0.135	0.171
NCI-H322M	0.353	0.413	0.418	0.47	0.455	0.312	0.988	0.213	0.247	0.254	0.332	0.375	0.249	0.255	0.311	0.268	1.21	0.208	0.281	0.277
NCI-H441	0.185	0.163	0.17	0.134	0.126	0.241	0.175	0.134	0.11	0.128	0.204	0.16	0.197	0.156	0.187	0.374	0.188	0.205	0.174	0.15
NCI-H460	0.0547	0.04	0.0328	0.0221	0.0138	0.0177	0.0116	0.014	0.0184	0.0064	0.0303	0.0322	0.0348	0.0156	0.0113	0.0277	0.0183	0.0198	0.0147	0.0062
NCI-H520	0.161	0.167	0.145	0.159	0.17	0.0874	0.112	0.123	0.104	0.116	0.149	0.255	0.168	0.143	0.251	0.19	0.212	0.301	0.151	0.166
NCI-H596	0.887	0.408	0.335	0.317	0.418	0.896	0.302	0.242	0.251	0.258	0.301	0.391	0.324	0.239	0.259	0.66	0.38	0.226	0.274	0.161
NCI-H647	0.0887	0.123	0.117	0.0803	0.0922	0.202	0.122	0.162	0.096	0.104	0.0392	0.0555	0.125	0.0761	0.0797	0.133	0.129	0.117	0.123	0.116
